This assay deals with xanthine oxidase (Bos taurus (Bovine), UniProt P80457). To be noted: read-out: Xanthine Oxidase Inhibition Activity (IC50); xanthine oxidase sourced from milk, hypoxanthine substrate, 0.1 M Tris-HCl pH 7.5, 30° C.
Sequence of xanthine oxidase (P80457 whole entry): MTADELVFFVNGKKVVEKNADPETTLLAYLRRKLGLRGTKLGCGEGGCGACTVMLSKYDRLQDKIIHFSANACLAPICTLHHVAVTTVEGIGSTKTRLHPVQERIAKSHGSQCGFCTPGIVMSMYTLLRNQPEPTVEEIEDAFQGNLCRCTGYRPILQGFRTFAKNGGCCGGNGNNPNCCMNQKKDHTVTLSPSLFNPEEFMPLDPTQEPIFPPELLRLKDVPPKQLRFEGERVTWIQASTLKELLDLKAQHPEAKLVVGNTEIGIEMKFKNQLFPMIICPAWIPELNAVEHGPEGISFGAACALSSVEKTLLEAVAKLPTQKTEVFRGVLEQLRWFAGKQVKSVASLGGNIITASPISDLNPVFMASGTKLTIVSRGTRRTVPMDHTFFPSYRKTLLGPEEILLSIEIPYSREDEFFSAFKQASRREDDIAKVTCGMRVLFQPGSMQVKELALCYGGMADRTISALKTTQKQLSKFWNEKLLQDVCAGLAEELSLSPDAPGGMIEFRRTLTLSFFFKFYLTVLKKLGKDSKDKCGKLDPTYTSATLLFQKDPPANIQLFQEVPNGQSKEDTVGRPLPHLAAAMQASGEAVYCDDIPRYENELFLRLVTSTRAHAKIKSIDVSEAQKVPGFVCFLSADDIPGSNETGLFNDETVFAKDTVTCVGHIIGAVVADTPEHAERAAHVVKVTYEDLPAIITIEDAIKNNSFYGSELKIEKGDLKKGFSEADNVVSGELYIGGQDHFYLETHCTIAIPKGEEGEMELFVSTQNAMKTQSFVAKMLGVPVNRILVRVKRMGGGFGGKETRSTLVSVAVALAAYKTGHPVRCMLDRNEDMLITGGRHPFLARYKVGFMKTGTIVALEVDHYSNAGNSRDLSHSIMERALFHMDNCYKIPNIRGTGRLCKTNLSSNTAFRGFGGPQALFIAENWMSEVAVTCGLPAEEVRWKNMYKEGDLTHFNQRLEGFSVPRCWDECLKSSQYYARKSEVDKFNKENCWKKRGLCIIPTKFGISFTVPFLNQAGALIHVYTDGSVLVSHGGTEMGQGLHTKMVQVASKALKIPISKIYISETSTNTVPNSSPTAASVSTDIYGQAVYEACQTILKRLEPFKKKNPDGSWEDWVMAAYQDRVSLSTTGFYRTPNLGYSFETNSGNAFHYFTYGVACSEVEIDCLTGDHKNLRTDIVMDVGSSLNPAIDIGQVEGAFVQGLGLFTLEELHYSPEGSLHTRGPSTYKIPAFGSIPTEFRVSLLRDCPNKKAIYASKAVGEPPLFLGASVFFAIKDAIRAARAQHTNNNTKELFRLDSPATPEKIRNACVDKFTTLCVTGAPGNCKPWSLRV

Description: The inhibition of the activity of xanthine oxidase (XO) is tested through a coupled enzymatic reaction of xanthine oxidase, horseradish peroxidase (HRP) and a substrate thereof. First, xanthine oxidase oxidizes hypoxanthine to produce xanthine and hydrogen peroxide, and further oxidizes xanthine to produce uric acid and hydrogen peroxide. […] The fluorescence intensity of resorufin is determined by using a fluorescence microplate, which is in direct proportion to the activity of xanthine oxidase.
A certain amount of a test compound and a control compound, febuxostat (by Beijing Lianben Pharm-chemicals Tech. Co., Ltd.) were dissolved in DMSO (by Sinopharm Chemical Reagent Co., Ltd.). A 2.5-fold serial dilution of the test compound was diluted with DMSO in a 96-well polypropylene reaction plate (by Greiner Bio One), so as to obtain a 200-fold dilution. The solution was further diluted in ultrapure water to obtain a 3-fold serial dilution. […]
9 μL reaction solution A and 9 μL 3-fold serial dilution of the test compound were mixed in a 96-well test plate (by Greiner Bio One), placed on a flat plate type oscillator, and mixed at 30° C. for 30 min at 100 rpm. […] The fluorescence intensity at 530 nm exciting light and 590 nm emitted light was determined by using a fluorescence microplate (Perkin Elmer Vitor X4).

For orientation: IC50 means the concentration that inhibits the measured activity by half. Consider “2-[3-bromo-4-(aniline formyl)-phenyl]-4-methyl-selenazole-5-carboxylic acid [Compound 67]”, for which the half-inhibitory concentration (IC50) was greater than 100 nM.

Source of the values: patent US9802907B2, “2-aryl selenazole compound and pharmaceutical composition thereof” (JIANGSU ATOM BIOSCIENCE AND PHARMACEUTICAL CO., LTD., priority 2012, dated 2017).
